Test results reported in US5073566A, “Angiotensin II antagonist 1,3-imidazoles and use thereas” (Eli Lilly and Company, priority 1989, dated 1991).
Structures can show the parent of a compound that is named as a salt. Where two headings read alike, the source gives them in different places.

Assays:
angiotensin II receptor = assay: Adrenal Glomerulosa Test System: I125-angiotensin II binding to adrenal membranes; conditions: percent inhibition of I125 angiotensin binding at 10^-5 M of antagonist; rat adrenal membranes; 0.1 nM I125-angiotensin II
Procedure: The ability for compounds of Formula I to block angiotensin II receptor binding was determined using the adrenal glomerulosa assay.
Binding of I^125 -angiotensin II to adrenal membranes was routinely carried out in 96-well filtration plates. Adrenal membranes were prepared from the capsular portion (glomerulosal layer attached) of rat adrenal glands by differential centrifugation. Briefly, capsules were homogenized in a solution containing sucrose, 250 mM; MgCl2, 1 mM; and tris, 5 mM at pH 7.5 and 4° C. using a polytron at setting 5 for 20 seconds. The homogenate was stirred, gently, for 15 minutes at 4° C. and then centrifuged 10 minutes, at 1000×g, 4° C. The supernatant was centrifuged 30 minutes, at 30,000 ×g, 4° C. and the resulting pellet resuspended in 50 mM tris. Membrane preparations were stored in aliquots at -70° C. until used. Binding of I^125 -angiotensin II to adrenal membranes was performed at room temperature for 90 minutes in 96-well plates containing a hydrophilic polyvinylidene fluoride membrane (0.45 μm, millipore-GV multiscreen). Each 250 μl incubate contained the following (final concentration): tris, 50 mM; NaCl, 120 mM; MgCl2, 5 mM; dithiothrietol 1 mM; bovine serum albumin, 0.05%; I^125 -angiotensin II, 0.1 nM; and adrenal membrane protein, 8-15 μg. Antagonists were added in concentrations from 10 nM to 100 μM. Non-specific binding was measured in the presence of 0.1 μM Sar1, Ile8 angiotensin II. Binding was terminated by vacuum filtration. Receptor-ligand complex trapped on filters was washed 3 times with 300 μl ice-cold wash solution (tris, 50 mM; NaCl, 120 mM; MgCl2, 5 mM; dithiothrietol, 1 mM). Filter discs were dried, punched out and counted in a gamma counter at 52% efficiency. Specific binding represented 96% of total binding (approximately 150 fmol angiotensin II/mg protein). Data are expressed as the percent inhibition of I^125 angiotensin binding at 10^-5 M of antagonist.

[1] = target: T1, angiotensin-induced vasoconstriction (rabbit aorta) (Oryctolagus cuniculus, UniProt P34976); assay: Rabbit Aorta Test System: antagonism of angiotensin II-induced contraction of aortic rings; type: cell-based, New Zealand white rabbits
T1 construct: the thoracic aortas were removed and cleaned of excess fat and connective tissue; from tissue; host or cells: thoracic aorta rings of New Zealand white rabbits
T1 sequence (P34976 1-359): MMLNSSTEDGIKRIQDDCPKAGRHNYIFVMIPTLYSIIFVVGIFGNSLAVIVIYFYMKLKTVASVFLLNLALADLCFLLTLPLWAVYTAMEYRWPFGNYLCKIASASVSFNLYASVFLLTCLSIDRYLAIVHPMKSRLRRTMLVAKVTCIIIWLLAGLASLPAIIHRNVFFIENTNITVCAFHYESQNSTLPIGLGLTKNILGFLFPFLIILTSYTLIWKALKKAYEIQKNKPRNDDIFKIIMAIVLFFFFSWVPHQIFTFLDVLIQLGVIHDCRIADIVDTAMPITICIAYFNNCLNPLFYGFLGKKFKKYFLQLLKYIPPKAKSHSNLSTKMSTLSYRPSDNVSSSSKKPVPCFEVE
Procedure: The ability to antagonize angiotensin-induced vasoconstriction was evaluated in the rabbit aorta test system.
New Zealand white rabbits (Hazelton, 2-3 kg) were sacrificed by cervical dislocation and the thoracic aortas were removed and cleaned of excess fat and connective tissue. Rings of tissue (3 mm wide) were mounted in 10 ml tissue baths between 2 L-shaped stainless steel hooks. The lower hook was attached to a stationary rod and the upper hook to a force displacement transducer (Grass model FT.03). The bath chambers were maintained at 37° C., aerated with 95% O2 /5% CO2, and contained physiological solution of the following composition (mM): NaCl, 117; glucose, 5.6; NaH2 PO4, 1.0; MgSO4, 0.7; KCl, 5.2; CaCl2, 1.8; NaHCO3, 26; and phentolamine HCl, 0.003.
Rings were equilibrated for 1 hour with 2 g of tension. During the equilibration period, the tissues were washed by overflow every 15 minutes. Rings were then exposed to 10^-8 M angiotensin II (AII) and were allowed to contract until a steady state was reached. Tissues were then washed every 15 minutes for 1 hour. This was repeated every hour until the AII response stabilized. A cumulative concentration-response curve to AII (10^-10 to 10^-7 M) was then obtained. At the conclusion of the concentration-response curve, tissues were washed every 2 minutes until baseline tension was reached, then every 15 minutes for 30 minutes. Compounds were added in a volume of 10 μl DMSO and allowed to incubate for 30 minutes before repeating the concentration-response curve to AII. Contractions to AII were expressed as a percent of the maximum contraction obtained in the control curve (the first AII concentration-response curve). EC50 's (concentration that contracted the tissues to 1/2 the control maximum) for each curve were calculated using a 4 parameter logistics model (NonLin, SAS institute).

[2] = pA2 = -log KB, KB = [molar concentration of antagonist]/[(EC50 AII with antagonist/EC50 AII without antagonist)-1], 30 min incubation, AII 10^-10 to 10^-7 M, read-out: Rabbit Aorta (pA2) (converted)

SMILES | Adrenal Glomerulosa (% Inhibition of Binding) (angiotensin II receptor) [%] | Kb [1, 2] [µM] | Kb [1] [µM]
CCCCCCC(C(=O)O)n1cnc(NC(=O)C2c3ccccc3-c3ccccc32)c1 (stereo not drawn) [Example 31, α-Hexyl-9-[(9H-fluoren-9-ylcarbonyl)amino]-1H-imidazole-1-acetic acid hydrochloride] | 70 | 3.09 | 
CCCCCCC(C(=O)O)n1cnc(NC(=O)C2c3ccccc3Oc3ccccc32)c1.Cl.O (stereo not drawn) [Example 32, α-Hexyl-4-[(9H-xanthen-9-ylcarbonyl)amino]-1H-imidazole-1-acetic acid hydrochloride monohydrate] | 54 | 21.4 | 
CCCCCCC(C(=O)O)c1ccc(NC(=O)c2ccccc2C(=O)O)cc1 (stereo not drawn) [Example 38, α-Hexyl-4-[(2-carboxybenzoyl)amino]benzeneacetic acid] | 30 | 1.66 | 
CCCCCCC(C(=O)O)n1cnc(C(=O)NC2c3ccccc3-c3ccccc32)c1.Cl (stereo not drawn) [Example 44, α-Hexyl-4-{[(9H-fluoren-9-yl)amino]-carbonyl}-1H-imidazole-1-acetic acid hydrochloride] | 67 | 3.98 | 
CCCCCCC(C(=O)O)c1ccc(NC(=O)C2(O)c3ccccc3-c3ccccc32)cc1 (stereo not drawn) [Example 46, α-Hexyl-4-[(9-hydroxy-9H-fluoren-9-ylcarbonyl)-amino]benzeneacetic acid] | 39 |  | 43.7
CCCCCCC(C(=O)O)n1nnc(NC(=O)c2ccccc2C(=O)O)n1 (stereo not drawn) [Example 47, 5-[(2-Carboxybenzoyl)amino]-α-hexyl-2H-tetrazole-2-acetic acid] | 39 | 5.01 | 
CCCCCCC(c1nnn[nH]1)n1cnc(C(=O)NC(c2ccccc2)c2ccccc2)c1 (stereo not drawn) [Example 48, 1-[1-(Tetrazol-5-yl)heptyl]-N-(diphenylmethyl)-1H-imidazole-4-carboxamide] | 61 | 12 | 
CCCCCCC(c1cccc(C(=O)NC(c2ccccc2)c2ccccc2)c1)c1nnn[nH]1 (stereo not drawn) [Example 49, N-(Diphenylmethyl)-3-[1-(tetrazol-5-yl)-heptyl]benzamide] | 9 | 40.7 | 
CCCCCCC(c1nn[nH]n1)n1cnc(NC(=O)c2ccccc2C(=O)O)c1 (stereo not drawn) [Example 50, 2-[({1-[1-(Tetrazol-5-yl)heptyl]-1H-imidazol-4-yl}amino)carbonyl]benzoic acid hemihydrate] | 42 | 0.851 | 
CCCCCCC(C(=O)O)n1cnc(NC(=O)C(c2ccccc2)c2ccccc2)c1.Cl (stereo not drawn) [Example 51, α-Hexyl-4-[(diphenylacetyl)amino]-1H-imidazole-1-acetic acid hydrochloride] | 80 | 2.69 | 
CCCCCCC(C(=O)O)n1cnc(C(=O)NC(c2ccccc2)c2ccccc2)n1.Cl (stereo not drawn) [Example 52, α-Hexyl-3-{[(diphenylmethyl)amino]carbonyl}-1H-1,2,4-triazole-1-acetic acid hydrochloride] | 44 | 8.32 | 
CCCCCCC(C(=O)O)n1ccc(C(=O)NC(c2ccccc2)c2ccccc2)c1 (stereo not drawn) [Example 53, 3-{[(Diphenylmethyl)amino]carbonyl}-α-hexyl-1H-pyrrole-1-acetic acid] | 42 | 6.03 | 
CCCCCCC(C(=O)O)n1cc(C(=O)NC(c2ccccc2)c2ccccc2)cn1 (stereo not drawn) [Example 54, 4-{[(Diphenylmethyl)amino]carbonyl}-α-hexyl-1H-pyrazole-1-acetic acid] | 40 | 13.8 | 
CCCCCC(C(=O)O)c1ccc(Oc2ccccc2C(=O)O)cc1 (stereo not drawn) [Example 55, α-Pentyl-4-(2-carboxyphenoxy)phenylacetic acid] | 13 | 1.26 | 
CCCCCCC(C(=O)O)c1ccc(C(=O)c2ccccc2C(=O)O)cc1 (stereo not drawn) [Example 56, α-Hexyl-4-(2-carboxybenzoyl)benzeneacetic acid] | 75 | 1.05 | 
CCCCCCC(C(=O)O)n1cnc(C(=O)NC2CCc3ccccc32)c1.Cl (stereo not drawn) [Example 57, 4-{[(2,3-Dihydro-1H-inden-1-yl)amino]-carbonyl}-α-hexyl-1H-imidazole-1-acetic acid hydrochloride] | 77 | 2.63 | 
CCCCCCC(C(=O)O)n1cnc(C(=O)NC(c2ccccc2)c2ccccc2)c1.Cl (stereo not drawn) [Example 58, 4-{[(Diphenylmethyl)amino]carbonyl}-α-hexyl-1H-imidazole-1-aceticacid hydrochloride] | 69 | 4.27 | 
CCCCCCC(C(=O)O)n1cnc(NC(=O)C2(O)c3ccccc3-c3ccccc32)c1 (stereo not drawn) [Example 59, α-Hexyl-4-[(9-hydroxy-9H-fluoren-9-ylcarbonyl)-amino]-1H-imidazole-1-acetic acid] | 67 |  | 3.09
CCCCCC(CO)n1cnc(NC(=O)c2ccccc2C(=O)O)c1 (stereo not drawn) [Example 60, 2-[({1-[1-(Hydroxymethyl)hexyl]-1H-imidazol-4-yl}amino)carbonyl]benzoic acid] | 15 | 8.32 | 

Now from value to compound, other results behind:

Adrenal Glomerulosa (% Inhibition of Binding) (angiotensin II receptor) [%] | Kb [1, 2] [µM] | SMILES | Kb [1] [µM]
66 | 0.11 | CCCCCCC(C(=O)O)n1cnc(NC(=O)c2cccc(O)c2C(=O)O)c1 (stereo not drawn) [Example 30, α-Hexyl-4-[(2-carboxy-3-hydroxybenzoyl)amino]-1H-imidazole-1-acetic monohydrate] | 
42 | 0.631 | CCCCCCC(C(=O)O)n1cnc(NC(=O)c2ccccc2C(=O)O)c1 (stereo not drawn) [Example 33, 4-[(2-Carboxybenzoyl)amino]-α-hexyl-1H-imidazole-1-acetic acid] | 
31 | 1.91 | CCCCCCC(C(=O)O)n1cnc(NC(=O)Cc2ccccc2C(=O)O)c1.O (stereo not drawn) [Example 34, α-Hexyl-4-{[(2-carboxyphenyl)acetyl]-amino}-1H-imidazole-1-aceticacid hydrate] | 
36 | 2.63 | CCCCCCC(C(=O)O)n1cnc(NC(=O)c2c(C(=O)O)ccc3ccccc23)c1 (stereo not drawn) [Example 35, α-Hexyl-4-{[(2-carboxy-1-naphthalenyl)carbonyl]amino}-1H-imidazole-1-acetic acid] | 
5 | 11.7 | CCCCCCC(C(=O)O)n1cnc(NC(=O)c2cc(C(=O)O)ccc2O)c1 (stereo not drawn) [Example 36, α-Hexyl-4-[(2-hydroxy-5-carboxybenzoyl)amino]-1H-imidazole-1-acetic acid] | 
0 | 1.58 | CCCCCCC(C(=O)O)n1cnc(NC(=O)c2c(F)cccc2C(=O)O)c1 (stereo not drawn) [Example 37, 4-[(2-Carboxy-6-fluorobenzoyl)amino]-α-hexyl-1H-imidazole-1-acetic a cid hydrate (1:2.5)] | 
44 | 0.661 | CCCCCCC(CC(=O)O)n1cnc(NC(=O)c2ccccc2C(=O)O)c1.O (stereo not drawn) [Example 39, 4-[(2-Carboxybenzoyl)amino]-β-hexyl-1H-imidazole-1-propanoic acid monohydrate] | 
9 | 1.62 | CCCCCCC(C(=O)O)n1cnc(NC(=O)c2c(C(=O)O)cccc2[N+](=O)[O-])c1 (stereo not drawn) [Example 40, α-Hexyl-4-[(2-carboxy-6-nitrobenzoyl)-amino]-1H-imidazole-1-acetic a cid] | 
30 | 0.646 | CCCCCCC(CCC(=O)O)n1cnc(NC(=O)c2ccccc2C(=O)O)c1 (stereo not drawn) [Example 41, 4-[(2-Carboxybenzoyl)amino]-γ-hexyl-1H-imidazole-1-butanoic acid hemihydrate] | 
58 | 0.331 | CCCCCCC(C(=O)O)n1cnc(NC(=O)c2ccccc2-c2nnn[nH]2)c1.O (stereo not drawn) [Example 42, α-Hexyl-4-{[2-(tetrazol-5-yl)benzoyl]-amino}-1H-imidazole-1-acetic a cid monohydrate] | 
0 | 0.955 | CCCCCCC(C(=O)O)n1cnc(NC(=O)c2ccccc2CC(=O)O)c1.O (stereo not drawn) [Example 43, 4-{[2-(Carboxymethyl)benzoyl]amino}-α-hexyl-1H-imidazole-1-aceticacid monohydrate] | 
0 | 4.17 | CCCCCCC(C(=O)O)n1cnc(NC(=O)c2cccc([N+](=O)[O-])c2C(=O)O)c1.O (stereo not drawn) [Example 45, α-Hexyl-4-[(2-carboxy-3-nitrobenzoyl)-amino]-1H-imidazole-1-acetic a cid hydrate] | 
35 | 1.26 | CCCCCCC(C(=O)O)n1cnc(NC(=O)c2ccccc2O)c1 (stereo not drawn) [Example 76, α-Hexyl-4-[(2-hydroxybenzoyl)amino]-1H-imidazole-1-acetic acid] | 
36 | 5.5 | CCCCCCC(C(=O)O)n1cnc(NC(=O)c2c(O)ccc3ccccc23)c1 (stereo not drawn) [Example 77, α-Hexyl-4-{[(2-hydroxy-1-naphthalenyl)-carbonyl]amino}imidazole-1-acetic acid] | 
